Test results as given in article PMC8279484 (Journal of Medicinal Chemistry, 2021).

System: C57BL/6J mice
Assay: Murine zymosan-induced peritonitis
Type: in vivo, mouse
Conditions: peritoneal lavage, n = 5 mice
Procedure: Male C57BL/6J mice of 9 weeks of age were purchased from Charles River (Kent, U.K.) and were housed in a specific pathogen-free facility in individually ventilated and filtered cages under positive pressure. Peritonitis was induced in mice by ip injection of zymosan (purchased from Sigma-Aldrich; 1 mg per mouse in 0.5 mL of phosphate-buffered saline (PBS)).[73] Mice were treated with dexamethasone (1 μg/g) purchased from Sigma-Aldrich 1 h prior to zymosan injection or (R)-6 (2 and 6 ng/g) (200 μL IP) 30 min prior to zymosan injection. Peritoneal cells were collected by lavage 4 h after injection of zymosan. The local Animal Use and Care Committee and The UK Home Office approved the animal experiments in accordance with the derivatives of both The Home Office Guidance on the Operation of Animals (Scientific Procedures) Act 1986 and The Guide for the Care and Use of Laboratory Animals of the National Research Council.
Surface marker expression on peritoneal cells was assessed by flow cytometry with data collection on a FACSCalibur (Becton Dickinson). Data were analyzed with FlowJo analysis software (Treestar Inc.). Cells were stained with AlexaFluor488 conjugated anti-F4/80 (clone BM8; eBioscience); APC conjugated anti-CD11b (clone M1/70; eBioscience) and Pacific blue conjugated anti-Ly6G (clone 1A8; BioLegend) antibodies. Prior to surface staining, peritoneal cells were counted manually (Neubauer chamber) with Turks solution. Using appropriate fluorescence minus one (FMO) controls, quadrants were drawn, and data were plotted on logarithmic-scale density- or dot-plots.

CCCCC[C@@H](O)c1nc2ccccc2nc1/C=C/[C@@H](O)[C@@H](O)CCCC(=O)OC [(R)-6, Methyl (5S,6R,E)-5,6-Dihydroxy-8-(3-((R)-1-hydroxyhexyl)quinoxalin-2-yl)oct-7-enoate]
Total no of PMNs ((R)-6 2 μg/kg ip (low dose) + zymosan 40 mg/kg): 4.4 ± 1.1 × 10^6/mL
Total no of PMNs ((R)-6 6 μg/kg ip (high dose) + zymosan 40 mg/kg): 3.2 ± 0.7 × 10^6/mL
